# From publication PMC11141368, “Antioxidant, antibacterial, enzyme inhibition and fluorescence characteristics of unsymmetrical thiourea derivatives” (Heliyon, 2024)
# “And” between values parts separate entries of the source, which are not always exact repeats. Equal entries are not always repeated.
# Assays:
# [1] = biological target: T1, acetylcholinesterase (AChE) (Electrophorus electricus, UniProt O42275); assay: biochemical; details: for inhibition at 62.5 µg/mL / inhibition at 125 µg/mL / inhibition at 250 µg/mL / inhibition at 500 µg/mL / inhibition at 1000 µg/mL: read-out: AChE Percent inhibition
# T1 construct: The AChE was derived from the electric eel, while BChE was obtained from equineserum; from tissue; host or cells: electric eel (tissue not specified)
# T1 sequence (O42275 24-633): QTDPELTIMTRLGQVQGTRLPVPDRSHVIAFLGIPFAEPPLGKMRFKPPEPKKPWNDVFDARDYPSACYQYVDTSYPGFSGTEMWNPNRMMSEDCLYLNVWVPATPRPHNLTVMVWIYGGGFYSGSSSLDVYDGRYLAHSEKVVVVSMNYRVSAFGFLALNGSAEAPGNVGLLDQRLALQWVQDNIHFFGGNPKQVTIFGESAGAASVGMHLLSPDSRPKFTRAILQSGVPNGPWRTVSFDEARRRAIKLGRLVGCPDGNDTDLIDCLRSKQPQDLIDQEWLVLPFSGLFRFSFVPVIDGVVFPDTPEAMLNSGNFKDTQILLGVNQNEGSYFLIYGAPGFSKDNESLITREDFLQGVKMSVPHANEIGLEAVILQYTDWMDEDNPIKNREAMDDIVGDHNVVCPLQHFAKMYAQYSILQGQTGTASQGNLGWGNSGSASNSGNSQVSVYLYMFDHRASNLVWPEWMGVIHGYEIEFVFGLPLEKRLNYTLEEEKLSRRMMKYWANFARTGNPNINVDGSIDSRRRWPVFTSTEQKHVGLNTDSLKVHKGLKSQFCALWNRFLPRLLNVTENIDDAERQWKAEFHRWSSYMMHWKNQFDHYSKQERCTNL
# Experimental: (§1) This assay employed two enzymes, namely acetylcholinesterase (AChE) and butyryl cholinesterase (BChE). The AChE was derived from the electric eel, while BChE was obtained from equineserum. The synthesized compounds were dissolved in phosphate buffer (0.1 M, pH 8.0). The enzymes AChE (518 U/mg) and BChE (7–16 U/mg) were diluted in a 0.1 M phosphate buffer to achieve concentrations of 0.03 U/mL and 0.01 U/mL, respectively. Preparations of ATchI (0.5 mM), DTNB (0.2273 mM), and BTchI (0.5 mM) were made in distilled water and stored at a low temperature of 8 °C. […] The solution was heated to 30 °C for 15 min, followed by the gradual addition of the substrate. Absorbance of the heated sample at 412 nm was measured using a double beam spectrophotometer. […] The percentage activity (A) and inhibition of the enzyme were determined by applying the rate of absorption as a function of time (V=ΔAbs/Δt) using the following equation (Equation (2)).(2) %Inhibition=V/Vmax×100 Where V = enzyme inhibition activity of products and Vmax = enzyme activity without test of product.
# [2] = biological target: T2, butyryl cholinesterase (BChE) (Equus caballus, UniProt P81908); assay: Anticholinesterase assay (Elman's test), BChE; format: biochemical; details: for inhibition at 62.5 µg/mL / inhibition at 125 µg/mL / inhibition at 250 µg/mL / inhibition at 500 µg/mL / inhibition at 1000 µg/mL: read-out: BChE Percent inhibition
# T2 construct: The AChE was derived from the electric eel, while BChE was obtained from equineserum; from tissue; host or cells: equine serum
# T2 sequence (P81908 whole entry): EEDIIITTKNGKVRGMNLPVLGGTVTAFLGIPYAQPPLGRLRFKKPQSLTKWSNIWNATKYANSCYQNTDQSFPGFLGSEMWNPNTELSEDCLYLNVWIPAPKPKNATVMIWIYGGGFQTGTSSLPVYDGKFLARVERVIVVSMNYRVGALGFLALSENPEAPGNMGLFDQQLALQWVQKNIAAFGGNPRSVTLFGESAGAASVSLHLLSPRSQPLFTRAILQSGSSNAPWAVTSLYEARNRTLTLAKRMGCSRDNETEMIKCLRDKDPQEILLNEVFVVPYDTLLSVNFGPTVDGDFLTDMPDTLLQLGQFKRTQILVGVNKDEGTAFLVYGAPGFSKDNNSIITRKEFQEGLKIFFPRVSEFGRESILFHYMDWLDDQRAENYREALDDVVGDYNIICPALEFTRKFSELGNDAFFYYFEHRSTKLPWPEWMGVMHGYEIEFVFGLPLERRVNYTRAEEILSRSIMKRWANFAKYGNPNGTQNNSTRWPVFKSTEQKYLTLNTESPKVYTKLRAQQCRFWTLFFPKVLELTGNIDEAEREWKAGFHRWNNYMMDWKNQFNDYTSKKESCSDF
# Experimental: as §1
# E. coli = assay: Antibacterial agar well diffusion; format: cell-based, Escherichia coli (ATCC25922); details: Escherichia coli, 24 h, 6.25 mg/mL per well, 37 °C
# Description: (§2) The antibacterial assay was done for all compounds (1–6) as described in previous studies. The mean number of viable organisms per milliliter of stock suspensions containing Escherichia coli (ATCC25922), Pseudomonas aeruginosa (ATCC27853), Salmonella typhi (ATCC0650), and Staphylococcus aureus (NCTC25953) was uncovered using the surface viable counting method. Preparations of suspensions containing approximately 108–109 colony forming units (CFU) per milliliter were made. Aseptic nutritional agar was formulated and transferred onto petri dishes. Cultures of bacteria were uniformly distributed on agar surface using sterile brush sticks. Five wells, each with a diameter of 6 mm, were made in each plate using a sterile borer. Afterwards, a concentration of 6.25 mg/mL of each component was applied to separate wells. Cephradine, a readily accessible antibiotic, was employed as a reference standard at an equivalent concentration. Following sealing, the agar dishes were incubated at a controlled temperature of 37 °C for a period of 24 h. The zone of inhibition in the plates was determined, which represents the inhibition of bacterial growth. Each sample zone of inhibition diameter was evaluated, and the antibacterial effectiveness of each drug was quantified according to the mean diameter of the inhibition zone (in millimetres).
# P. aeruginosa = assay: Antibacterial agar well diffusion; format: cell-based, Pseudomonas aeruginosa (ATCC27853); details: Pseudomonas aeruginosa, 24 h, 6.25 mg/mL per well, 37 °C
# Description: as §2
# [3] = ABTS free radical scavenging assay; format: biochemical
# Experimental: (§3) In accordance with the procedure described in the literature, the ABTS activity assay was applied to evaluate the free radical scavenging capabilities of the synthesized compounds (1–6). ABTS solution was prepared by mixing 7 mM ABTS and 2.45 mM potassium persulfate and was then placed for 16 h under dark at room temperature. A methanol dilution was performed on the solution to achieve an absorbance of 0.706 ± 0.001 at 734 nm before starting the assay. To quantify the assay, 3 mL of the ABTS solution has been added to different concentrations (ranging from 62.5 to 1000 μg/mL) of every compound (300 μL) that were dissolved in methanol. Then after 1 min of incubation, the absorbance was continuously measured for 5 min. To confirm precision, all experiments were conducted in triplicate. The antioxidant capacities of the compounds were assessed with gallic acid as a reference, and the ability to remove free radicals was calculated as a percentage for each compound employing Equation.1 as presented below. Additionally, the DPPH free radical scavenging method was employed to assess the antioxidant activity of compounds (1–6), in accordance with a widely recognized procedure documented in existing literature. Concentrations ranging from 62.5 to 1000 μg/mL of compounds (1–6), dissolved in methanol, were introduced into a 2 mL solution of DPPH (0.002 % in methanol). The resulting solutions were kept in the dark at room temperature for a duration of 30 min. The amount of light absorbed by the solutions was then determined using a UV/vis spectrophotometer at a wavelength of 517 nm. The investigations were performed three times, using the exact protocol described for the ABTS scavenging assay. Afterwards, the antioxidant capabilities of each molecule were assessed using calculation.(1) Scavengingactivity(%)=A−B/A×100
# (§4) Where, A = absorbance of ABTS/DPPH and B = absorbance of solution containing ABTS/DPPH and test samples.
# S. typhi = assay: Antibacterial agar well diffusion; format: cell-based, Salmonella typhi (ATCC0650); details: Salmonella enterica, TYPHI, 24 h, 6.25 mg/mL per well, 37 °C
# Description: as §2
# [4] = DPPH free radical scavenging assay; format: biochemical
# Experimental: as §3, §4
# S. flexenari = assay: Antibacterial agar well diffusion; format: cell-based; details: 24 h, 6.25 mg/mL per well, 37 °C
SMILES,IC50 [1],inhibition at 62.5 µg/mL [1] [%],inhibition at 125 µg/mL [1] [%],inhibition at 250 µg/mL [1] [%],inhibition at 500 µg/mL [1] [%],inhibition at 1000 µg/mL [1] [%],inhibition at 62.5 µg/mL [2] [%],inhibition at 125 µg/mL [2] [%],inhibition at 250 µg/mL [2] [%],inhibition at 500 µg/mL [2] [%],inhibition at 1000 µg/mL [2] [%],zone of inhibition at 6250 µg/mL (E. coli) [mm],zone of inhibition at 6250 µg/mL (P. aeruginosa) [mm],ABTS IC50 [3] [µg/mL],ABTS %inhibition ([3]; 62.5 μg/mL) [%],ABTS %inhibition ([3]; 125 μg/mL) [%],ABTS %inhibition ([3]; 250 μg/mL) [%],ABTS %inhibition ([3]; 500 μg/mL) [%],ABTS %inhibition ([3]; 1000 μg/mL) [%],zone of inhibition at 6250 µg/mL (S. typhi) [mm],other results
"Cc1cccnc1NC(=S)Nc1ccccc1 [Compound 5, 1-(3-methylpyridin-2-yl)-3-phenylthiourea]",1410 µM,38.7 ± 0.68,44.7 ± 1.25,48 ± 0.75,56.3 ± 1.06,63.3 ± 0.98,31.9 ± 0.48,39 ± 0.48,47.9 ± 0.96,61.6 ± 1.34,69.6 ± 1.12,10.5,9.5,44.60,67.80 ± 1.50,72.56 ± 1.06,77.42 ± 0.43,85.23 ± 1.83,92.76 ± 0.71,11.5,DPPH IC50 [4]: 37.50 µg/mL; DPPH %inhibition ([4]; 62.5 μg/mL): 62.44 ± 0.58%; DPPH %inhibition ([4]; 125 μg/mL): 67.56 ± 1.73%; DPPH %inhibition ([4]; 250 μg/mL): 74.31 ± 2.15%; DPPH %inhibition ([4]; 500 μg/mL): 81.65 ± 1.34%; DPPH %inhibition ([4]; 1000 μg/mL): 88.58 ± 1.12%; zone of inhibition at 6250 µg/mL (S. flexenari): 10.5 mm
"S=C(Nc1ccccn1)NC1CCCCC1 [Compound 1, 1-cyclohexyl-3-(pyridin-2-yl) thiourea]",115 µM and 117 µM,62.44 ± 0.58,67.6 ± 1.73,74.3 ± 2.15,81.7 ± 1.34,88.6 ± 1.12,65.8 ± 1.5,71.6 ± 1.06,76.42 ± 0.43,84.2 ± 1.83,91.76 ± 0.71,9.5,9,67.08,47.65 ± 1.74,54.45 ± 0.96,63.59 ± 2.50,72.20 ± 1.90,84.81 ± 1.17,10,IC50 [2]: 96 µM; DPPH IC50 [4]: 63.02 µg/mL; DPPH %inhibition ([4]; 62.5 μg/mL): 48.57 ± 2.03%; DPPH %inhibition ([4]; 125 μg/mL): 54.32 ± 1.89%; DPPH %inhibition ([4]; 250 μg/mL): 63.01 ± 1.65%; DPPH %inhibition ([4]; 500 μg/mL): 75.63 ± 2.60%; DPPH %inhibition ([4]; 1000 μg/mL): 85.10 ± 1.45%; zone of inhibition at 6250 µg/mL (S. flexenari): 8.5 mm
